Experimental data taken from patent US8354237B2, “Anti-methylation-controlled j protein antibodies and uses thereof” (University of Vermont and State Agriculture College, priority 2007, dated 2013).
Peptide text beside a SMILES is read from it. * marks the point of attachment. Cbz = O=C(OCc1ccccc1)*

How the values were obtained:
Assay type in all cases: cell-based, human
MCF7 cells [1] = experiment: Cell viability assay (MTT assay); details: for response of cells to drug (percent viability, MTT assay): MCF7 cells
Description: (§1) MCF7 and MCF7/ADR cells were a kind gift from Dr. Ken Cowan (National Cancer Institute, Bethesda, Md.). MCF7, MCF7/ADR, MCF7/siMCJ-1B MCF7/siMCJ-3B, […], MD22, MES-SA and MES-Dx5 cells were maintained in RPMI-1640 (Life technologies, Inc., Gaithersburg, Md.) containing 5% FBS (Hyclone, Logan, Utah), Penicillin/streptomycin and 1-glutamine (Gibco). 293T cells were cultured in DMEM-F12 medium (Life technologies, Inc.) supplemented with 10% FBS (Hyclone, Logan, Utah).
(§2) The dose response of cell line to different drugs was determined by MTT assay as described previously (Conze et al., Cancer Res 61, 8851-8858, 2001; Sladowski et al., J Immunol Methods 157, 203-207, 1993). Different concentrations of drug were used, ranging from 0-100 μM for Doxorubicin, 0-30 μM for Paclitaxel and 0-30 μM for 5-Flurouracil. LD50 values were calculated by non-linear regression and plotted graphically as percentage of viable cells.

MCF7/siMCJ-1B cells [2] = experiment: Cell viability assay (MTT assay)
Description: as §1, §2

MCF7/siMCJ-3B cells [3] = experiment: Cell viability assay (MTT assay)
Description: as §1, §2

MCF7/siMCJ-1B cells [4] = experiment: Analysis of drug internalization (flow cytometry, confocal microscopy); details: for effect on intracellular accumulation of doxorubicin: verapamil 10 μM
Description: (§3) MCF7, MCF7/ADR, MCF7/siMCJ-1B and MCF7/siMCJ-3B cells were treated with doxorubicin (0.3 or 3 μM) for 3 h at 37° C. Negative controls had no drug added. Cells were washed 3 times with PBS and trypsinised and doxorubicin fluorescence was examined by flow cytometry using a LSRII flow cytometer (BD Biosciences, Mass.). FLP3, 695/40 nm filter with 685 nm long pass was used to measure doxorubicin fluorescence. For MCF7/siMCJ cells, EGFP was detected in FLP1, 530/30 nm band-pass with 505 nm long pass. No overlap of two fluorescences could be detected. Confocal microscopy: MCF7, MCF7/ADR, MCF7/siMCJ-1B and -3B (3×10^4) cells were seeded on BD Biocoat coverslips (BD Biosciences, Bedford, Mass.) and treated with doxorubicin in the presence or absence of veraparnil (10 μM). After different periods of time (0, 2, 3 h) cells were washed with PBS and fixed in 3.7% paraformaldehyde to be examined by confocal microscopy. Since both, EGFP (present in MCF7/siMCJ cells) and doxorubicin are excited by 488 nm, the conventional multi track type of analysis could not be used. Instead, the Lambda Mode analysis in the Zeiss confocal microscope (Zeiss LSM 510 META Confocal Laser Scanning Imaging System, Carl Ziess Microimaging Inc, Thronwood, N.Y.) was used that allows a precise analysis of the emission spectrum for each fluorochrome (Chen and Simon, J Cell Biol 148, 863-870, 2000). The cells were excited at 488 nm and emission peaks were readily separated by this methodology with EGFP emission at 500 nm and doxorubicin at 600 nm (FIG. 10).

MCF7 cells [5] = experiment: as above
Description: as §3

MCJ = MCJ mRNA expression by RT-PCR in MCF7 cells cultured with IL-6; details: IL-6 50 ng/ml, 8 days (one week), RT-PCR and real-time RT-PCR
Description: Total RNA was isolated using ULTRASPEC® RNA isolation systems, as recommended by the manufacturer (Biotecx Laboratories, Inc, Houston, Tex.). The first strand cDNA was obtained by reverse transcription as described previously (Conze et al., Cancer Res 61, 8851-8858, 2001). cDNA was used to detect human […], HPRT, MCJ, ABCG2 and ABCC1 expression by conventional PCR or real-time RT-PCR. Previously described primers were used for the conventional RT-PCR amplification of ABCB1 (Noonan et al., Proc Natl Acad Sci USA 87, 7160-7164, 1990), HPRT (Conze et al., Cancer Res 61, 8851-8858, 2001), ABCC1 (Harbottle et al., Int J Cancer 92, 777-783, 2001), ABCG2 (Doyle and Ross, Oncogene 22, 7340-7358, 2003) and MCJ (Shridhar et al., Cancer Res 61, 4258-4265, 2001). For the real-time RT-PCR analysis, by TAQMAN® system (Applied Biosystems), an Assay on Demand Kit for human HPRT and ABCB1 (Sigma, Genosys) was used. For the detection of MCJ by real time RT-PCR, we used the following probe and primer set were used (Sigma, Genosys) (probe 5′-[…]-3; (SEQ ID NO:22) sense primer 5′-CAGAAAATGA GTAGGCGAGAAGC-3′ (SEQ ID NO:23) and anti-sense primer 5′-[…]-3′ (SEQ ID NO:24). HPRT was used as an endogenous control to normalize the mRNA values in each sample. The relative values were determined by the comparative CT analysis method. […]

c-Jun = c-Jun expression by Western blot in MCF7 cells treated with proteasome inhibitor; details: MG132 5 μM, 4 h
Description: Whole cell extracts were prepared in lysis buffer as previously described (Pedraza-Alva et al., J Biol Chem 276, 729-737, 2001). 40-100 μg of proteins were separated by electrophoresis and transferred on to a nitrocellulose membrane (Conze et al., Cancer Res 61, 8851-8858, 2001). Primary antibodies for Western blotting include anti-ABCB1 (JSB-1 clone) from (ALEXIS corporation Switzerland), rabbit polyclonal anti-MCJ, anti-HA, anti-c-Jun, from (Cell Signaling Technology, Inc) anti-actin and the secondary antibodies goat anti-mouse HRP, goat anti-rabbit HRP and donkey anti-goat HRP Ab from (Santa Cruz Biotechnology). LUMIGLO® chemiluminescent substrate system (KPL, Maryland) was used to visualize the proteins. Levels of actin were determined as loading control.
It was determined whether the increased c-Jun DNA binding in siMCJ cells could be due to an upregulation of c-Jun protein levels. The levels of c-Jun by Western blot analysis were examined using whole cell lysates. Very low levels of c-Jun were detected in MCF7 cells, but high levels were present in MCF7/siMCJ cells (FIG. 8D). It has been previously reported that c-Jun levels can be regulated by ubiquitination and proteasome mediated degradation (Treier et al., Cell 78, 787-798, 1994). […]

MCF7/ADR cells [6] = experiment: Cell viability assay (MTT assay)
Description: as §1, §2

MCF7/siMCJ-3B cells [7] = experiment: Analysis of drug internalization (flow cytometry, confocal microscopy); details: 3 h; for intracellular accumulation of doxorubicin: flow cytometry
Description: as §3

MCF7/ADR cells [8] = experiment: as above; details: 0.3 and 3 μM, 3 h
Description: as §3

O=c1[nH]cc(F)c(=O)[nH]1 [5-FU, 5-fluorouracil]
dose-response compared between cell lines (MTT assay) (MCF7 cells [1]; MCF7, MCF7/ADR, MCF7/siMCJ-1B and -3B cells): comparable

CC(=O)O[C@H]1C(=O)[C@@]2(C)[C@H]([C@H](OC(=O)c3ccccc3)[C@]3(O)C[C@H](OC(=O)[C@H](O)[C@@H](NC(=O)c4ccccc4)c4ccccc4)C(C)=C1C3(C)C)[C@]1(OC(C)=O)CO[C@@H]1C[C@@H]2O [paclitaxel]
response of cells to drug (percent viability, MTT assay) (MCF7/siMCJ-1B cells [2]): highly resistant | response of cells to drug (percent viability, MTT assay) (MCF7 cells [1]): highly sensitive | response of cells to drug (percent viability, MTT assay) (MCF7/siMCJ-3B cells [3]): highly resistant

COc1ccc(CCN(C)CCCC(C#N)(c2ccc(OC)c(OC)c2)C(C)C)cc1OC (stereo not shown) [verapamil]
effect on intracellular accumulation of doxorubicin (MCF7/siMCJ-1B cells [4]; confocal microscopy, doxorubicin 3 h): clear intracellular accumulation was observed | effect on intracellular accumulation of doxorubicin (MCF7/siMCJ-1B cells [4]; flow cytometry, doxorubicin 3 μM, 3 h): allowed the intracellular accumulation of doxorubicin | effect on intracellular accumulation of doxorubicin (MCF7 cells [5]; flow cytometry, verapamil 10 μM, doxorubicin 3 μM, 3 h): no effect

IL-6: exogenous IL-6 added to MCF7 cell culture
MCJ mRNA levels compared with untreated MCF7 cells (MCJ): reduced levels

CC(C)C[C@@H](C=O)NC(=O)[C@H](CC(C)C)NC(=O)[C@H](CC(C)C)NC(=O)OCc1ccccc1 [MG132] (Cbz-Leu-Leu-Leu-aldehyde)
c-Jun levels compared with untreated MCF7 cells (c-Jun): Increased levels

COc1cccc2c1C(=O)c1c(O)c3c(c(O)c1C2=O)C[C@@](O)(C(=O)CO)C[C@@H]3O[C@H]1C[C@H](N)[C@H](O)[C@H](C)O1 [doxorubicin]
response of cells to drug (percent viability, MTT assay) (MCF7/siMCJ-1B cells [2]): significantly more resistant | response of cells to drug (percent viability, MTT assay) (MCF7 cells [1]): highly sensitive | response of cells to drug (percent viability, MTT assay) (MCF7/siMCJ-3B cells [3]): significantly more resistant | response of cells to drug (percent viability, MTT assay) (MCF7/ADR cells [6]): highly resistant | doxorubicin fluorescence (intracellular accumulation) (MCF7/siMCJ-1B cells [4]; confocal microscopy, 3 h): no doxorubicin fluorescence was observed | intracellular accumulation of doxorubicin (MCF7/siMCJ-1B cells [4]; flow cytometry, 0.3 μM, 3 h): no intracellular accumulation | intracellular accumulation of doxorubicin (MCF7/siMCJ-1B cells [4]; flow cytometry, 3 μM, 3 h): very low intracellular levels | doxorubicin fluorescence (intracellular accumulation) (MCF7 cells [5]; confocal microscopy, 1, 2 or 3 h): maximum level of intracellular accumulation was reached after 3 h | intracellular accumulation of doxorubicin (MCF7 cells [5]; flow cytometry, 0.3 and 3 μM, 3 h): High levels | doxorubicin fluorescence (intracellular accumulation) (MCF7/siMCJ-3B cells [7]; confocal microscopy): no doxorubicin fluorescence was observed | intracellular accumulation of doxorubicin (MCF7/siMCJ-3B cells [7]; 0.3 μM): no intracellular accumulation | intracellular accumulation of doxorubicin (MCF7/siMCJ-3B cells [7]; 3 μM): very low intracellular levels | intracellular accumulation of doxorubicin (MCF7/ADR cells [8]): no doxorubicin was observed
